Calls of active or inactive are those of the source. No cut-off for these calls is given here.
Columns and labels:
[1] = target: T1, Muscarinic acetylcholine receptor M5 (Homo sapiens) (UniProt P08912); assay: Antagonist activity at human muscarinic M5 receptor expressed in CHO cells assessed as minimal acetylcholine response by calcium mobilisation assay relative to control; type: cell-based; parameters: concentration or dose not given beside the values
T1 sequence (whole entry): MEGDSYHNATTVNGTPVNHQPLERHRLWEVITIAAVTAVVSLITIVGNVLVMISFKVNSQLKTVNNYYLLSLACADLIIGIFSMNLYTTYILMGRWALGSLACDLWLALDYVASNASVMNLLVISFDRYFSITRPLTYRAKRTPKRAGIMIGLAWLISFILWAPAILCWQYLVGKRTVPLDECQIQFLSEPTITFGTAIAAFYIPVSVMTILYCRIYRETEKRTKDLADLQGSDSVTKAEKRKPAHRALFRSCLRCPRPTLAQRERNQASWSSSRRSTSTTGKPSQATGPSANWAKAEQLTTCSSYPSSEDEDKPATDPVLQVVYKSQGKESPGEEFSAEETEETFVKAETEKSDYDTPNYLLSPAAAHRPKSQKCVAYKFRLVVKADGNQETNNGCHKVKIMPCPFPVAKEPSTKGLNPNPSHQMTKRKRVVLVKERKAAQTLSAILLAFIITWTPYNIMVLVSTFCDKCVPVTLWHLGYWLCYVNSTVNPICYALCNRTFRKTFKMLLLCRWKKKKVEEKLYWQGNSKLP

[2] = Unbound fraction in rat brain; type: ADME, tissue-based
[3] = Intrinsic clearance in human; type: ADME
[4] = Intrinsic clearance in rat; type: ADME
[5] = Unbound fraction in rat plasma; type: ADME, cell-free
[6] = target: T2, Muscarinic acetylcholine receptor M5 (Rattus norvegicus) (UniProt P08911); assay: Antagonist activity at rat muscarinic M5 receptor expressed in CHO cells assessed as minimal acetylcholine response by calcium mobilisation assay relative to control; type: cell-based; parameters: scale not given: the % may be the effect or the level left; conditions: filed as antagonist
T2 sequence (whole entry): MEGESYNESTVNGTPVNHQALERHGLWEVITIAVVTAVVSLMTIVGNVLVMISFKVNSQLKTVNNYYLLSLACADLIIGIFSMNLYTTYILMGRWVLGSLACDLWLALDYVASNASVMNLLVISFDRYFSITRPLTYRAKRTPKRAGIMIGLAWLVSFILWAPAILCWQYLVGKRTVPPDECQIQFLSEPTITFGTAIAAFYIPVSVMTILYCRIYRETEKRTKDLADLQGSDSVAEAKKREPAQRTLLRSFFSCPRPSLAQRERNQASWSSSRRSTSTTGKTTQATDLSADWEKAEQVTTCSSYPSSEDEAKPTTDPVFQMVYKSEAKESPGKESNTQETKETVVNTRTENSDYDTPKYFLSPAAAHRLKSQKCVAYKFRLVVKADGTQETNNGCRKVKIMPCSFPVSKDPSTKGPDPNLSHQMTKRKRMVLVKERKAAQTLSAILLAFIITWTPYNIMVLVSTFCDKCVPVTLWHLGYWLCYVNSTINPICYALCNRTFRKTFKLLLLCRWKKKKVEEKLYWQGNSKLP

[7] = Lipophilicity, logD of the compound at pH 7.4; type: physicochemical; conditions: buffer
[8] = Unbound fraction in human plasma; type: ADME, cell-free
[9] = target: T3, Muscarinic acetylcholine receptor M5 (Rattus norvegicus, UniProt P08911); assay: Antagonist activity at rat muscarinic M5 receptor expressed in CHO cells in the presence of acetylcholine by calcium mobilisation assay; type: cell-based
T3 sequence (P08911 whole entry): T2 sequence (whole entry)

[10] = target: T2, Muscarinic acetylcholine receptor M5 (Rattus norvegicus); assay: Antagonist activity at rat muscarinic M5 receptor assessed as minimal acetylcholine response relative to control; parameters: scale not given: the % may be the effect or the level left; conditions: filed as antagonist
[11] = target: T1, Muscarinic acetylcholine receptor M5 (Homo sapiens); assay: (§1) Antagonist activity at human muscarinic M5 receptor expressed in CHO cells in the presence of acetylcholine by calcium mobilisation assay; type: cell-based
[12] = target: T4, Muscarinic acetylcholine receptor M5 (Homo sapiens, UniProt P08912); assay: as §1; type: cell-based
T4 sequence (P08912 whole entry): T1 sequence (whole entry)

[13] = target: T5, Muscarinic acetylcholine receptor M1 (Homo sapiens, UniProt P11229); assay: Antagonist activity at human muscarinic M1 receptor expressed in CHO cells in the presence of acetylcholine by calcium mobilisation assay; type: cell-based
T5 sequence (P11229 whole entry): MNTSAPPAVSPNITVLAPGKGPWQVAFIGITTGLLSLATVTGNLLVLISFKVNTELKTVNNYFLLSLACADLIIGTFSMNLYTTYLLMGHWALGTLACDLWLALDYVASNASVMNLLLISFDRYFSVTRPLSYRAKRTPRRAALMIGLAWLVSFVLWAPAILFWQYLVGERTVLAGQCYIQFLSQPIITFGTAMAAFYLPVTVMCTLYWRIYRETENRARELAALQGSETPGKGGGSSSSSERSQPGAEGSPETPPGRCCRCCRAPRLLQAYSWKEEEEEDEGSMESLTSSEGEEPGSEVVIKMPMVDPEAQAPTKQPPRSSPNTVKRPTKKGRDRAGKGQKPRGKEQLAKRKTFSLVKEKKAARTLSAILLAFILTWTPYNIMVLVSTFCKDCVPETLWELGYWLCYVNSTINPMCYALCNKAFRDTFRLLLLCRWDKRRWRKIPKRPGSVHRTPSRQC

P-glycoprotein = assay: Efflux ratio of permeability in MDCK-MDR1 cells expressing P-glycoprotein; type: ADME, cell-based, Canis lupus familiaris; conditions: dog
[14] = target: T6, Muscarinic acetylcholine receptor M1 (Homo sapiens) (UniProt P11229); assay: Antagonist activity at human muscarinic M1 receptor expressed in CHO cells assessed as minimal acetylcholine response by calcium mobilisation assay relative to control; type: cell-based; parameters: scale not given: the % may be the effect or the level left; conditions: filed as antagonist
T6 sequence (whole entry): T5 sequence (P11229 whole entry)

[15] = Apparent permeability in MDCK-MDR1 cells; type: ADME, cell-based, Canis lupus familiaris; conditions: dog
[16] = target: T7, Muscarinic acetylcholine receptor M4 (Homo sapiens, UniProt P08173); assay: Antagonist activity at human muscarinic M4 receptor expressed in CHO cells in the presence of acetylcholine by calcium mobilisation assay; type: cell-based
T7 sequence (P08173 whole entry): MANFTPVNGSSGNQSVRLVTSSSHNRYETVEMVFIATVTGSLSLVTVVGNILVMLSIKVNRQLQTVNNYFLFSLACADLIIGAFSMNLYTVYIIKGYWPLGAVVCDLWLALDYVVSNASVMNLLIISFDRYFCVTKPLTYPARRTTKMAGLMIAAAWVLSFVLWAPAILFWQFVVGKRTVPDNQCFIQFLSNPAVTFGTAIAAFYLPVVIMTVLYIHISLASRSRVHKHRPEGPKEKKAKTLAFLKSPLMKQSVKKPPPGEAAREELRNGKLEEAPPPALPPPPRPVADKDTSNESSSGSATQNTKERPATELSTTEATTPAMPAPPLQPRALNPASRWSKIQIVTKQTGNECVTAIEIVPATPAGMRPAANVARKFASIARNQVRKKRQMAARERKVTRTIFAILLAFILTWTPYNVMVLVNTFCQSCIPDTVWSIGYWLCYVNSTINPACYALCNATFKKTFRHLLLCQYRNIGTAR

[17] = target: T1, Muscarinic acetylcholine receptor M5 (Homo sapiens); assay: Potency index, ratio of VU6027831 IC50 to test compound IC50 for antagonist activity at human M5 muscarinic receptor

Row | SMILES | Activity ([1]; filed as antagonist) | CLint scaled [3] | CLint scaled [4] | logD [7] | IC50 [12] | further results
1 | O=C(Nc1ccc2scnc2c1)[C@@H]1CCN(S(=O)(=O)c2ccc3ncsc3c2)C1 | 2% | 33 mL/min/kg | 51 mL/min/kg | 2.04 | – | fraction unbound [2]: 0.08; Fu [5]: 0.01; Activity [6]: 4%; Fu [8]: 0.12; IC50 [9]: 550 nM
2 | O=C(Nc1ccc2scnc2c1)C1CCN(S(=O)(=O)c2ccc3c(c2)CCO3)CC1 | – | – | – | – | – | Activity [10]: 3%
3 | O=C(Nc1ccc2scnc2c1)[C@@H]1CCN(S(=O)(=O)c2ccc(Cl)nc2)C1 | – | – | – | 2.41 | – | Activity [11]: inactive
4 | [2H]C1([2H])Oc2ccc(S(=O)(=O)N3CC[C@@H](C(=O)Nc4ccc5scnc5c4)C3)cc2C1([2H])[2H] | – | 50 mL/min/kg | 168 mL/min/kg | 2.45 | – | –
5 | Cc1ccc(S(=O)(=O)N2CC[C@@H](C(=O)Nc3ccc4scnc4c3)C2)cn1 | 41% | – | – | 1.85 | > 10000 nM | –
6 | O=C(Nc1ccc2scnc2c1)[C@@H]1CCN(S(=O)(=O)c2ccc3c(c2)OCO3)C1 | 3% | 30 mL/min/kg | 267 mL/min/kg | 2.43 | – | –
7 | O=C(Nc1ccc2scnc2c1)[C@@H]1CCN(S(=O)(=O)c2ccc3c(c2)CCC3)C1 | 31% | – | – | 3.54 | – | –
8 | Cn1cc(S(=O)(=O)N2CC[C@@H](C(=O)Nc3ccc4scnc4c3)C2)c(C(F)(F)F)n1 | – | – | – | 2.62 | > 10000 nM | Activity [1]: 59%
9 | O=C(Nc1ccc2scnc2c1)[C@@H]1CCN(S(=O)(=O)c2ccc3c(c2)CCO3)C1 | 2% | 50.6 mL/min/kg | 356 mL/min/kg | 2.53 | 21 nM | Activity ([1]; filed as antagonist, tested as the 2H-labelled form): 2%
10 | C[C@@H]1CN(S(=O)(=O)c2ccc3c(c2)CCO3)C[C@@H]1C(=O)Nc1ccc2scnc2c1 | 3% | 202 mL/min/kg | 769 mL/min/kg | 2.88 | 35 nM | –
11 | O=C(Nc1ccc2scnc2c1)[C@@H]1CCN(S(=O)(=O)c2ccc3ncccc3c2)C1 | 3% | 42 mL/min/kg | 191 mL/min/kg | 1.99 | – | –
12 | O=C(Nc1ccc2scnc2c1)C1CN(S(=O)(=O)c2ccc3c(c2)CCO3)C1 | 2% | 61 mL/min/kg | 301 mL/min/kg | – | – | –
13 | O=C(Nc1ccc2scnc2c1)[C@H]1CN(S(=O)(=O)c2ccc3c(c2)CCO3)C[C@@H]1C(F)(F)F | – | – | – | 3.65 | – | Activity [11]: inactive
14 | O=C(Nc1ccc2scnc2c1)C12CC1CN(S(=O)(=O)c1ccc3c(c1)CCO3)C2 (racemic) | 2% | 115 mL/min/kg | 396 mL/min/kg | 2.88 | 270 nM | –
15 | C[C@H]1CN(S(=O)(=O)c2ccc3c(c2)CCO3)C[C@@H]1C(=O)Nc1ccc2scnc2c1 | 2% | 5 mL/min/kg | 51 mL/min/kg | 2.94 | 87 nM | IC50 [13]: > 10000 nM; efflux ratio (P-glycoprotein): 32.3; Activity [14]: 8%; fraction unbound [2]: 0.05; Fu [5]: 0.01; Activity [6]: 2%; Papp [15]: 1.75 10^-6 cm/s; IC50 [16]: > 10000 nM; Fu [8]: 0.03; IC50 [9]: 190 nM
16 | O=C(Nc1ccc2scnc2c1)[C@@H]1CCN(S(=O)(=O)c2cccnc2)C1 | – | – | – | 1.65 | – | Activity [11]: inactive
17 | O=C(Nc1ccc2scnc2c1)[C@H]1CCN(S(=O)(=O)c2ccc3c(c2)CCO3)C1 | 3% | 64 mL/min/kg | 201 mL/min/kg | 2.51 | 440 nM | –
18 | Cc1nn(C)cc1S(=O)(=O)N1CC[C@@H](C(=O)Nc2ccc3scnc3c2)C1 | 6% | – | – | 1.62 | – | –
19 | O=C(Nc1ccc2scnc2c1)C1CCN(S(=O)(=O)c2ccc3c(c2)CCO3)C1 (stereo unspecified) | 2% | 72 mL/min/kg | 252 mL/min/kg | – | 47 nM | Ratio IC50 [17]: 2
